# Entries after “also recorded” stand apart in the source; their conditions may differ.
# Experiments:
# [1] = system: LTB4 produced by ionomycin-activated neutrophils; test: LTB4 production in ionomycin-activated whole blood/neutrophils ex vivo, DG-031 placebo-controlled crossover clinical trial; parameters: species or system human
# Method: (§1) In the short term study, changes in levels of biomarkers that are associated with risk of MI were scored as evidence of changes in the risk of MI.
# (§2) Patients (191 subjects) who met the study eligebility criteria were enrolled and randomized into 3 different dose-level groups: (1) 64 patients on 250 mg/day therapy with DG-031 (250 mg q.d.), vs placebo; (2) 64 patients on 500 mg/day therapy with DG-031 (250 mg b.i.d.) vs placebo; and (3) 63 patients on 750 mg/day therapy with DG-031 (250 mg t.i.d.) vs placebo. […] All patients received 3 tablets per day. Treatment periods, 4 weeks in duration each, were separated by a 2-week washout period. The placebo tablets were identical in shape, color, form and taste to the active tablets except that they contained no active drug ingredients. Treatment with DG-031 or placebo was in addition to the subject's standard care, including all medications and treatment plan as prescribed by the subject's cardiologist prior to enrollment. Due to early termination of 19 subjects (primarily related to unavailability due to travel), 11 were replaced prior to enrollment closure. Thus, a total of 191 subjects were enrolled, with 172 completing all 8 visits or 8 patients (4.4%) short of target.
# All data were analyzed according to a pre-established analysis plan and by intention-to-treat. Hypotheses were tested at a two-sided nominal significance level of 0.05. Each arm of the study, as well as pooled sets (combining dose levels), was considered for the primary analysis. Each such set is a standard AB/BA cross-over design and in the primary analysis of efficacy, the levels of biomarkers of MI risk at the end of the treatment periods (visits 4 and 7) were used as primary response variables. The difference between DG-031 and placebo treatment was the primary outcome, assessed separately for each of the biomarkers. […]
# (§3) Apart from measurements in plasma, LTB4 and MPO were also measured in whole blood preparations ex vivo following ionomycin-activation of leukocytes, using ELISA and mass spectrometry. […]
# [2] = system: myeloperoxidase (MPO) in whole blood; test: MPO production in ionomycin-activated whole blood ex vivo, DG-031 crossover clinical trial; parameters: species or system human
# Method: as §1
# as §2, with “Due to early termination of 19 subjects (primarily related to unavailability due to travel), 11 were replaced prior to enrollment closure. Thus, a total of 191 subjects were enrolled, with 172 completing all 8 visits or 8 patients (4.4%) short of target.” left out
# (§4) All data were analyzed according to a pre-established analysis plan and by intention-to-treat. […] The difference between DG-031 and placebo treatment was the primary outcome, assessed separately for each of the biomarkers. […]
# as §3
# urinary leukotriene E4 = test: Urine LTE4, DG-031 crossover clinical trial; format: in vivo, human; conditions: highest dosage of DG-031 (750 mg/day); nominal p=0.00002
# Method: as §1
# (§5) Patients (191 subjects) who met the study eligebility criteria were enrolled and randomized into 3 different dose-level groups: (1) 64 patients on 250 mg/day therapy with DG-031 (250 mg q.d.), vs placebo; (2) 64 patients on 500 mg/day therapy with DG-031 (250 mg b.i.d.) vs placebo; and (3) 63 patients on 750 mg/day therapy with DG-031 (250 mg t.i.d.) vs placebo. […] All patients received 3 tablets per day. Treatment periods, 4 weeks in duration each, were separated by a 2-week washout period. […]
# as §4
# (§6) Apart from measurements in plasma, LTB4 and MPO were also measured in whole blood preparations ex vivo following ionomycin-activation of leukocytes, using ELISA and mass spectrometry. […] On the log scale the adjustment was based on a linear model, with coefficients determined empirically at time of blind review. Several tertiary markers were also measured including: IL-6, IL-12p40, TNFα, MMP-9, sICAM, sVCAM, P-selectin, E-selectin, MCP-1 and oxidised LDL.
# C-reactive protein (CRP) = test: Serum CRP, DG-031 crossover clinical trial incl. carry-over test; format: in vivo, human
# Method: as §1, §2
# All data were analyzed according to a pre-established analysis plan and by intention-to-treat. Hypotheses were tested at a two-sided nominal significance level of 0.05. Each arm of the study, as well as pooled sets (combining dose levels), was considered for the primary analysis. Each such set is a standard AB/BA cross-over design and in the primary analysis of efficacy, the levels of biomarkers of MI risk at the end of the treatment periods (visits 4 and 7) were used as primary response variables. The difference between DG-031 and placebo treatment was the primary outcome, assessed separately for each of the biomarkers. Treatment effect was tested using a two-sample t-test on the period differences for suitably transformed response variables, under an assumption of normality of the transformed data. We report treatment effect as one half of the observed mean differences in the two-sample t-test, with a 95% CI. No pre-tests for carry-over effect were performed as a part of the primary analysis. Tests for carry-over were done and are reported separately from results of primary analysis. As was prespecified for the primary analysis, a simple Bonferroni-adjustment based on 10 biomarkers for the primary objective for the pooled set of the two highest doses, was used to report the outcome of the primary objective. All p-values reported are nominal.
# To cancel out potential seasonal effects, carry-over effects were also studied with two-sample t-tests that compare measurements of the AB (drug/placebo) group with the measurements of the BA (placebo/drug) group. To estimate the effect of the drug at visit 3 for the AB group, (v3−v2), with v3 and v2 denoting, respectively, measurements at visit 3 and visit 2, was used. Similarly (v4−v2) and (v5−v2) were used to estimate effects at visits 4 and 5. For estimating the effect at visit 6, [(v6−v2)+(v3−v2)] was used. Note that v6 from the BA group includes the drug effect after two weeks which cancels the drug effect at visit 3 from the AB group. Similarly, [(v7−v2)+(v4−v2)] was used to estimate the effect at visit 7. […]
# as §3
# serum amyloid A = test: Serum amyloid A (SAA), DG-031 crossover clinical trial incl. carry-over test; format: in vivo, human
# Method: as §1
# as §2, with “Due to early termination of 19 subjects (primarily related to unavailability due to travel), 11 were replaced prior to enrollment closure. Thus, a total of 191 subjects were enrolled, with 172 completing all 8 visits or 8 patients (4.4%) short of target.” left out
# as §4, §3
# Lp-PLA2 = test: Lp-PLA2, DG-031 crossover clinical trial; format: in vivo, human
# Method: as §1, §5, §4, §6
# [3] = system: IL-6, IL-12p40, TNFα, MMP-9, sVCAM, P-selectin, E-selectin, MCP-1 and oxidised LDL; test: Other tertiary markers (IL-6, IL-12p40, TNFα, MMP-9, sVCAM, P-selectin, E-selectin, MCP-1, oxidised LDL), DG-031 crossover clinical trial; format: in vivo, human; conditions: DG-031 vs placebo
# Method: as §1, §5, §4, §6
# [4] = Safety and adverse events, DG-031 crossover clinical trial; format: in vivo, human
# Description: All study participants lived in the Reykjavik metropolitan area or its neighboring townships. All study participants were followed by the designated cardiologists at the University Hospital of Iceland, at their outpatient or private clinics, and all subjects had participated in a study on the genetics of MI. After the subject had given informed consent, a medical and medication history was completed, including co-morbidities, concomitant medications and specific details about the subject's cardiovascular history, including current status. All study participants were fasting and had not taken their medications prior to the study visit. Cardiologists examined the patients at all 8 visits and completed the case report forms. All blood was collected and processed immediately after sampling. All blood specimens used for the biomarker studies were processed within 2 hours of blood sampling.
# as §2
# [5] = 750 mg/day dose; healthy volunteers and patients with asthma (Dahlen et al., Hamilton et al.); cited from earlier work
# [6] = differences between visit 2 and 5, 500 and 750 mg/day vs placebo
smiles,measurement,setting,value
"O=C(O)[C@@H](c1ccc(OCc2ccc3ccccc3n2)cc1)C1CCCC1 [DG-031, (R)-(+)-alpha-cyclopentyl-4-(2-quinolinylmethoxy)-Benzeneacetic acid]",maximum reduction in LTB4 production by ionomycin-activated neutrophils ex vivo,"[1]; 750 mg/day DG-031 vs placebo, 4-week treatment, MI patients carrying at-risk FLAP/LTA4 hydrolase haplotypes, nominal p=0.0026",26%
same,"carry-over effect from treatment phase to placebo phase, LTB4",[1]; [6],No carry over effects were observed
same,levels of LTB4 produced by ionomycin-activated neutrophils ex vivo (primary efficacy endpoint),"[1]; pooled set of 500 mg and 750 mg arms, nominal p=0.0042, significant after correction for multiple testing",reduces levels of LTB4
same,maximum reduction in MPO production (whole blood),"[2]; 750 mg/day DG-031 vs placebo, nominal p=0.023",13%
same,"carry-over effect from treatment phase to placebo phase, MPO",[2]; [6],No carry over effects were observed
same,increase in urine levels of LTE4,urinary leukotriene E4,27%
same,"carry-over / persistent effect after discontinuation, CRP","C-reactive protein (CRP); differences between visit 2 and 5, 500 and 750 mg/day vs placebo, p=0.017",evidence of a persistent effect; also recorded: marked carry over effects were observed; also recorded: seems to persists until visit 7
same,further CRP reduction in subjects already on statin therapy,"C-reactive protein (CRP); short term study, LT inhibitor added to statin therapy",20-30%
same,reduction of serum levels of CRP,C-reactive protein (CRP); summary of the clinical trial,approximately 25%
same,reduction of CRP,"C-reactive protein (CRP); visit 5 (after 2-week washout), two higher doses, p=0.017",about 25%
same,level of CRP during treatment,"C-reactive protein (CRP); visits 3 (2 weeks on therapy) and 4 (4 weeks on therapy), two higher doses","dropped at visits 3 and 4, but not significantly"
same,"carry-over / persistent effect after discontinuation, SAA","serum amyloid A; differences between visit 2 and 5, 500 and 750 mg/day vs placebo, p=0.051",evidence of a persistent effect
same,reduction of serum levels of SAA,serum amyloid A; summary of the clinical trial,approximately 25%
same,effect on Lp-PLA2,Lp-PLA2; 2 lower doses (250 mg/day and 500 mg/day),not significant
same,increase in Lp-PLA2,"Lp-PLA2; highest dose of DG-031 (750 mg/day), nominal p=0.0056",9%
same,effect on other tertiary markers,[3],no effects were observed
same,"dizziness, number of patients reporting","[4]; active drug (any dose) vs none on placebo, p=0.032",6 patients
same,liver transaminases,[4]; active drug vs placebo,no difference was detected
same,serious adverse events,[4]; between treatment groups or dose arms,no difference in serious adverse events
same,overall safety and tolerability,"[4]; clinical trial, 250-750 mg/day",safe and well tolerated
same,tolerability in previous phase I-III human studies,[5],well tolerated

# Reference: patent publication US8158362B2, “Methods of diagnosing susceptibility to myocardial infarction and screening for an LTA4H haplotype” (deCODE Genetics ehf., priority 2005, dated 2012)
